Data as given in publication doi:10.1101/2023.01.08.523168v1 (biorxiv, 2023).
Residues, ends and D or L forms follow the SMILES beside them. *: point of attachment. Oxazole(5-CO) = O=C(c1cnco1)*

Target: T1, NanoLuc-ENL (ENL YEATS-NanoLuc luciferase fusion protein) (Homo sapiens, UniProt Q03111)
T1 sequence (Q03111 1-148): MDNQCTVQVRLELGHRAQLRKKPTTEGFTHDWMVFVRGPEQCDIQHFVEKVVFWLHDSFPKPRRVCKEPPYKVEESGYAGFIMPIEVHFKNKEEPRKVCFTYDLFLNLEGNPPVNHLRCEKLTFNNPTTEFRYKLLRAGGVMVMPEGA
Assay: NanoBRET tracer displacement in HEK293T cells
Assay type: cell-based
Details: HEK-293T, read-out: % inhibition at 40 μM

- inhibition at 40 µM: ~50%
SMILES: CC(=O)N[C@H](C(=O)N[C@@H](Cc1ccc(O)cc1)C(=O)N[C@@H](CS)C(=O)N[C@@H](Cc1ccc(O)cc1)C(=O)N[C@@H](CCCCNC(=O)c1cnco1)C(N)=O)C(C)C [tENL-S1o] (Ac-VYCYK(Oxazole(5-CO))-NH2)
